Consider 26 compounds from ChEMBL document CHEMBL5233263 (Eur J Med Chem, 2021).

Assay [1] deals with T1, D(2) dopamine receptor (Homo sapiens, UniProt P14416). As to the kind of experiment: Displacement of [3H]-spiperone from human D2 receptor expressed in Sf9 cells assessed as inhibition constant. A general note: Loss of bound radioactivity is the signal in a displacement assay; it reports binding, not function.
The target of assay [2] is T1, D(2) dopamine receptor. The assay is described as follows: Agonist activity at human D2R expressed in HEK293 cells incubated for 3 mins by FLIPR analysis. It is filed as cell-based.
The target in assay [3] is T2, D(4) dopamine receptor (Homo sapiens) (UniProt P21917).
T2 sequence (whole entry): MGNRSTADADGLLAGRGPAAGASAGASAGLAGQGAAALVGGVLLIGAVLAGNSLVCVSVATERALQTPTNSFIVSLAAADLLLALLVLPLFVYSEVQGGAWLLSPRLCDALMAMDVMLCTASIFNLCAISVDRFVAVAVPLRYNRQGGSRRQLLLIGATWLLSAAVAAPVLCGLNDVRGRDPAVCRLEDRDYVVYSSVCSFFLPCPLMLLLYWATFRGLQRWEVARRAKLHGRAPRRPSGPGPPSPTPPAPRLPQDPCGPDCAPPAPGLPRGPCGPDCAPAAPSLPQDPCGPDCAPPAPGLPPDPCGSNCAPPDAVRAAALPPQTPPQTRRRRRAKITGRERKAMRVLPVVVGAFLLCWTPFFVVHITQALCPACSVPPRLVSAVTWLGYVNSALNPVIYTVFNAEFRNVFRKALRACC
As to the kind of experiment: Binding affinity to human D4R at 1 uM relative to control.

For assay [4], the target named is T1, D(2) dopamine receptor. The assay is described as follows: Binding affinity to D2R (unknown origin) assessed as inhibition constant.
Assay [5] concerns the target T3, D(3) dopamine receptor (Homo sapiens, UniProt P35462). The assay is described as follows: Binding affinity to D3R (unknown origin) assessed as inhibition constant.
Assay [6] addresses T4, D(4) dopamine receptor (Homo sapiens, UniProt P21917).
T4 sequence (P21917 whole entry): T2 sequence (whole entry)
The assay is described as follows: Binding affinity to human D4R assessed as inhibition constant.

In assay [7] the target is T4, D(4) dopamine receptor. As to the kind of experiment: (§1) Displacement of [3H]-nemonapride from human D4 receptor expressed in CHO cells assessed as inhibition constant. It is filed as cell-based.
For assay [8], the target named is T4, D(4) dopamine receptor. The assay is described as follows: Agonist activity at D4R (unknown origin) by camp reporter assay. (Reporter assays use an easily measured gene product as a stand-in for the process of interest.)
Assay [9] concerns the target T4, D(4) dopamine receptor. As to the kind of experiment: Agonist activity at D4R (unknown origin).
For assay [10], the target named is 5-hydroxytryptamine receptor 2A (Homo sapiens, UniProt P28223). The assay is described as follows: Binding affinity to 5HT2A receptor (unknown origin) assessed as inhibition constant.
Chain of 5-hydroxytryptamine receptor 2A (P28223 whole entry): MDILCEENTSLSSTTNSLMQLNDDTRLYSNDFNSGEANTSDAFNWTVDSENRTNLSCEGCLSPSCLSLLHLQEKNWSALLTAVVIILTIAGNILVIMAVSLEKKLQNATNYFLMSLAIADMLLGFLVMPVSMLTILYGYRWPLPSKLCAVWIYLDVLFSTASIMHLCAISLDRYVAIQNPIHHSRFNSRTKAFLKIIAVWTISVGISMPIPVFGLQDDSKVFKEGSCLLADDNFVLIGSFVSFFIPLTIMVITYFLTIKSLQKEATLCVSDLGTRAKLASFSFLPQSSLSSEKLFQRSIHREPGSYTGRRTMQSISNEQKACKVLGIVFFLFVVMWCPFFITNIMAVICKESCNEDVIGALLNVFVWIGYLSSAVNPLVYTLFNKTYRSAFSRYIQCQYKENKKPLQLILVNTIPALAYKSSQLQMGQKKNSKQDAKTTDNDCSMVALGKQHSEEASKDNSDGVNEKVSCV
The target of assay [11] is T1, D(2) dopamine receptor. As to the kind of experiment: Binding affinity to human D2R assessed as inhibition constant.
Assay [12] addresses T3, D(3) dopamine receptor. The assay is described as follows: Binding affinity to human D3R assessed as inhibition constant.
Assay [13] concerns the target T4, D(4) dopamine receptor. The assay is described as follows: Displacement of [3H]-spiperone from human D4 receptor expressed in CHO cells assessed as inhibition constant. It is filed as cell-based.
Assay [14] deals with T4, D(4) dopamine receptor. The assay is described as follows: Binding affinity to D4R (unknown origin) assessed as inhibition constant.
Assay [15] has as its target T2, D(4) dopamine receptor (Homo sapiens). The assay is described as §1. It counts as cell-based.
Assay [16] has as its target T1, D(2) dopamine receptor. As to the kind of experiment: Binding affinity to human D2R assessed as inhibition constant by Cheng-Prusoff equation analysis.
Assay [17] deals with T4, D(4) dopamine receptor. As to the kind of experiment: Displacement of [3H]-spiperone from human D4 receptor expressed in HEK293 cells assessed as inhibition constant. It counts as cell-based.
The target in assay [18] is T1, D(2) dopamine receptor. As to the kind of experiment: Displacement of [3H]-spiperone from human D2 receptor assessed as inhibition constant.
For assay [19], the target named is T3, D(3) dopamine receptor. The assay is described as follows: Displacement of [3H]-spiperone from human D3 receptor assessed as inhibition constant.
Assay [20] deals with T4, D(4) dopamine receptor. As to the kind of experiment: Displacement of [3H]-spiperone from human D4 receptor expressed in CHO-K1 cells assessed as inhibition constant measured after 60 mins. It counts as cell-based.
The target of assay [21] is T3, D(3) dopamine receptor. As to the kind of experiment: Displacement of [3H]-spiperone from human D3 receptor expressed in CHO cells assessed as inhibition constant. It counts as cell-based.
The target of assay [22] is T4, D(4) dopamine receptor. The assay is described as follows: Agonist activity at human D4R assessed as [35S] GTPgammaS binding. Background: Binding of GTPγS marks nucleotide exchange on a G protein.
For assay [23], the target named is T2, D(4) dopamine receptor (Homo sapiens). The assay is described as follows: Agonist activity at human D4R assessed as [35S] GTPgammaS binding relative to control. The note with it: filed as agonist.
The target of assay [24] is T4, D(4) dopamine receptor. As to the kind of experiment: Displacement of [3H]-methylspiperone from D4 (unknown origin) receptor expressed in HEK293T cells assessed as inhibition constant. It is filed as cell-based.
Assay [25] has as its target T4, D(4) dopamine receptor. As to the kind of experiment: Agonist activity at human D4R.
The target of assay [26] is T2, D(4) dopamine receptor (Homo sapiens). As to the kind of experiment: Agonist activity at human D4R at 10 uM relative to control.

T3 sequence (P35462 whole entry): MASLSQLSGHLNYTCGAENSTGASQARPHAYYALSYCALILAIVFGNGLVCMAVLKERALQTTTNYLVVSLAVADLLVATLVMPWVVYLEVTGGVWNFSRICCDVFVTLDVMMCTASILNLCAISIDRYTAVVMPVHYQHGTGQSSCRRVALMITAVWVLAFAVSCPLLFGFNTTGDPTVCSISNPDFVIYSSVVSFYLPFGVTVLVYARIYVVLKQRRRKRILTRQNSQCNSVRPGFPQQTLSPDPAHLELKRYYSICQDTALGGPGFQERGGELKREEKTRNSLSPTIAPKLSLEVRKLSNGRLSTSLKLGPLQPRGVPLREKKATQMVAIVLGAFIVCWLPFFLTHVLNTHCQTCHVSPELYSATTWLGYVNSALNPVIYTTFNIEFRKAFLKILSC
T1 sequence (P14416 whole entry): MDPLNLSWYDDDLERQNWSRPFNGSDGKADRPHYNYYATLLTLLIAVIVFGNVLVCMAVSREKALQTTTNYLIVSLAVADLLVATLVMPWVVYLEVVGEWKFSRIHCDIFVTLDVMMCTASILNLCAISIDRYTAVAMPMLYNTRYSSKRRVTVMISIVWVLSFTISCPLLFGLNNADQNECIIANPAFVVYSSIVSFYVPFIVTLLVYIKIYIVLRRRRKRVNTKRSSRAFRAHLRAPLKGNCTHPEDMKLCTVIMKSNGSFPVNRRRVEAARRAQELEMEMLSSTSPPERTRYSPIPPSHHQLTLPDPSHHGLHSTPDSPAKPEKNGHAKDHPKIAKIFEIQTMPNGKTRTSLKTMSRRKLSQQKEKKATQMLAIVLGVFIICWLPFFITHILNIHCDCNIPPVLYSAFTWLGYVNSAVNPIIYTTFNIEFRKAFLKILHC

Consider `CC(C)Oc1cccnc1N(C)C1CCN(Cc2ccc(I)cc2)CC1`, for which the Ki – broadly, a dissociation constant, usually derived from enzyme kinetics or from competition with a known ligand – in [1] stood at 0.568 µM.

For `c1ccc(N2CCN(Cc3nc4ccccc4[nH]3)CC2)nc1` [ABT-724], in assay [2], the EC50 (in general, the midpoint of the concentration-response curve) turned out to be 0.012 µM.

On to `Clc1ccc2c(c1)N=C(N1CCN(CCCCc3ccncc3)CC1)c1ccccc1N2`, for which, in assay [3], the Activity worked out at 78%.

Consider `CCOC(=O)c1sc2[nH]cn/c(=N\[C@H]3CCN(CC)C3)c2c1C`, for which the Ki in assay [4] and in [5] was over 10 µM in each case.

With `CN(C)[C@@H](CNC(=O)NC[C@H]1Cc2ccccc21)CC1CCCCC1`, the Ki is over 10 µM in [4] and 5.4 µM in assay [5].

Consider `CCOC(=O)N1CCN(Cc2cnn(-c3ccc(Cl)cc3)c2)CC1`, for which the Ki in assay [6] was 0.26 µM; in [4] it was 10.2 µM; in [7], 0.26 µM.

Consider `CC(=O)O[C@H]1CC(C)(C)C(=C=C/C(C)=C/C=C/C(C)=C/C=C/C=C(C)/C=C/C=C(\C)C(=O)C[C@@]23O[C@]2(C)C[C@@H](O)CC3(C)C)[C@](C)(O)C1`, for which the EC50 amounted to 82 µM in [8] and 16.9 µM in assay [9].

Consider `Clc1ccc2c(c1)C(N1CCN(CCc3ccccc3)CC1)=Nc1cccnc1N2`, for which the Ki in assay [10] came to 0.103 µM.

`Oc1cccc(OCCNCC2COCC(c3ccccc3)(c3ccccc3)O2)c1` (centres undefined): the inhibition constant Ki in [4] was over 10 µM; in assay [5] it was 0.0014 µM.

As for `N#Cc1[nH]c2ccccc2c1CN1CCN(c2ccccc2)CC1`, the Ki in [11] was 4.9 µM; in [12], 2.5 µM; in assay [13] it was 0.00076 µM.

Take `CCOC(=O)c1[nH]c2ccc(F)cc2c1CN1CCN(c2ccccc2)CC1`: the figures for the inhibition constant Ki in [11], in assay [12] and in assay [13] were 22 µM, 15 µM and 0.0015 µM, respectively.

As for `NS(=O)(=O)c1ccc(N2CCN(CCC3OCCc4ccccc43)CC2)cc1` (centres undefined), the Ki was 5.15 µM in assay [4], over 2.78 µM in assay [5] and 0.0036 µM in assay [14].

For `OCc1ccc(N2CCN(Cc3nc4ccccc4[nH]3)CC2)cc1Cl`, the K in [15] was determined as 3.6 nM. For the same compound, the Ki in assay [16] was over 5.88 µM.

For the compound `Clc1ccc(OCC2CN(Cc3c[nH]c4ncccc34)CCO2)cc1` (centres undefined), the K in assay [4] was over 1700 nM. For the same compound, the results for the Ki in assay [5] and in [17] were 3.2 µM and 0.0015 µM, respectively.

As for `Clc1ccc2c(c1)N=C(N1CCN(c3ccccc3)CC1)CCN2`, the Ki in assay [18] came to 4.7 µM; in [19], 3.4 µM; in [20], 0.031 µM.

`COc1ccccc1OCCNCC1COCC(c2ccccc2)(c2ccccc2)O1` (centres undefined): the Ki in [4] was over 10 µM; in [5], 0.013 µM. The compound also showed an EC50 in assay [8] of 0.0014 µM.

The compound `CCOC(=O)c1nn(-c2ccccc2)cc1CN(C)[C@@H]1CCSC1` registered an EC50 in [8] of 10.8 µM.

On to `COc1cc(Cl)ccc1OCC1CN(Cc2ccc(Cl)cc2)CCO1` (centres undefined), for which the Ki in assay [13] amounted to 0.0028 µM.

On to `Clc1ccc2c(c1)N=C(N1CCN(CCCCc3ccccc3)CC1)c1ccccc1N2`, for which, in assay [3], the Activity came to 82%.

For the compound `COc1ccccc1N1CCN(Cc2ccc3cccccc2-3)CC1`, the Ki in [21] turned out to be 0.082 µM. The EC50 in assay [22] stood at 0.0037 µM. In assay [23], the Emax (commonly the size of the effect at its maximum, as opposed to the concentration needed) was 54%.

On to `CC(C)N1C[C@H](NC(=O)N2Cc3ccccc3[C@@H]2C)[C@@H](C)C1`, for which the results for the Ki in assay [4], in assay [5] and in assay [24] were over 10 µM, over 10 µM and 0.0043 µM, respectively. Further, the EC50 in assay [8] worked out at 0.00018 µM.

As for `O/N=C/c1c(CN2CCN(c3ccccc3)CC2)[nH]c2ccccc12`, the Ki in [11] worked out at 8.8 µM; in assay [12], 3.7 µM; in assay [13] it was 0.0005 µM.

As for `OCc1[nH]c2ccccc2c1CN1CCN(c2ccccc2)CC1`, the Ki in assay [11] is 2.1 µM; in assay [12], 3.3 µM; in [13] it was 0.00066 µM.

With `COc1cccc(CCC2=NCCN2CCc2ccccc2)c1`, the Ki in [4] and in assay [5] was over 10 µM throughout.

As for `Cc1ncc(CN2CC=C(c3ccccc3)CC2)c(N)n1`, the results for the Ki in assay [11], in assay [12] and in assay [13] were over 1 µM, over 1 µM and 0.0052 µM, respectively. Also, the EC50 in assay [25] came out at 0.205 µM. The compound also returned an Emax in assay [26] of 36%.

On to `Clc1ccc2c(c1)N=C(N1CCN(CCCOc3ccccc3)CC1)c1ccccc1N2`, for which, in [3], the Activity was 81%.
